Test results: patent US10052320B2, “Substituted quinoxalines as FGFR kinase inhibitors” (ASTEX THERAPEUTICS LIMITED, priority 2011, dated 2018)
Read-outs that look alike come from different tables or passages of the source. Blank lines part the entries; values can stand above or below the compound they belong to.

Assays:
[1] = molecular target: FGFR2 (h) (Homo sapiens, UniProt P21802); assay: FGFR2 (enzymatic assay), TR-FRET; format: biochemical; settings: read-out: FGFR 2 pIC50 (converted)
Protocol: In a final reaction volume of 30 μL, FGFR2 (h) (150 ng/ml) was incubated with 50 mM HEPES pH 7.5, 6 mM MnCl2, 1 mM DTT, 0.1 mM Na3VO4, 0.01% Triton-X-100, 500 nM Btn-Flt3 and 0.4 μM ATP in the presence of compound (1% DMSO final). […] Time-Resolved Fluorescence Resonance Energy Transfer (TR-FRET) signal (ex340 nm. Em 620 nm, em 655 nm) was measured afterwards and results are expressed in (Relative Fluorescence Units).

[2] = molecular target: FGFR3 (h) (Homo sapiens, UniProt P22607); assay: FGFR3 (enzymatic assay), TR-FRET; format: biochemical; settings: read-out: FGFR 3 pIC50 (converted)
Sequence of FGFR3 (h) (P22607 23-806): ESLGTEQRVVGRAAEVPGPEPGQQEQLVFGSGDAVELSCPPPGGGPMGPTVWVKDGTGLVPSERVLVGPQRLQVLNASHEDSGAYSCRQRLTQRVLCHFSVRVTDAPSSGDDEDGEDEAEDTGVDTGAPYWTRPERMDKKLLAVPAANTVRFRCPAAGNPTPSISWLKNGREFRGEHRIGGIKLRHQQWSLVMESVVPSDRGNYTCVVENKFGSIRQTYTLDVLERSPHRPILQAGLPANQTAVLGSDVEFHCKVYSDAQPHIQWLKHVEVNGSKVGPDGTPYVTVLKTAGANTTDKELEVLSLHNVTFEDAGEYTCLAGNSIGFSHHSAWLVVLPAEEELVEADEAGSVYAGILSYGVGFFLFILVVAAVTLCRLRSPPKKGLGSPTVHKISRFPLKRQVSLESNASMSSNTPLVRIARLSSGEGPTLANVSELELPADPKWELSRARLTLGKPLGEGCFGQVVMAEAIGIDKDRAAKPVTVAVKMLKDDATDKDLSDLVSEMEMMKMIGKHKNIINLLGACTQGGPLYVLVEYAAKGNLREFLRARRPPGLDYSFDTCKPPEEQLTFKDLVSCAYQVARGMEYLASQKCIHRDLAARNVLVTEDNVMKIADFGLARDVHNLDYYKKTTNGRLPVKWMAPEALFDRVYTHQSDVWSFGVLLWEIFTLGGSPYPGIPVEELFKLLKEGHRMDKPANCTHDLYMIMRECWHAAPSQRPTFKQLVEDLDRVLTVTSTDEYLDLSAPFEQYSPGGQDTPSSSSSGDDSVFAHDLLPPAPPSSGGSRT
Protocol: (§1) In a final reaction volume of 30 μL, FGFR3 (h) (40 ng/ml) was incubated with 50 mM HEPES pH 7.5, 6 mM MnCl2, 1 mM DTT, 0.1 mM Na3VO4, 0.01% Triton-X-100, 500 nM Btn-Flt3 and 25 μM ATP in the presence of compound (1% DMSO final). […] Time-Resolved Fluorescence Resonance Energy Transfer (TR-FRET) signal (ex340 nm. Em 620 nm, em 655 nm) was measured afterwards and results are expressed in RFU (Relative Fluorescence Units).

[3] = molecular target: FGFR4 (h) (Homo sapiens, UniProt P22455); assay: FGFR4 (enzymatic assay), TR-FRET; format: biochemical; settings: read-out: FGFR 4 pIC50 (converted)
Sequence of FGFR4 (h) (P22455 22-802): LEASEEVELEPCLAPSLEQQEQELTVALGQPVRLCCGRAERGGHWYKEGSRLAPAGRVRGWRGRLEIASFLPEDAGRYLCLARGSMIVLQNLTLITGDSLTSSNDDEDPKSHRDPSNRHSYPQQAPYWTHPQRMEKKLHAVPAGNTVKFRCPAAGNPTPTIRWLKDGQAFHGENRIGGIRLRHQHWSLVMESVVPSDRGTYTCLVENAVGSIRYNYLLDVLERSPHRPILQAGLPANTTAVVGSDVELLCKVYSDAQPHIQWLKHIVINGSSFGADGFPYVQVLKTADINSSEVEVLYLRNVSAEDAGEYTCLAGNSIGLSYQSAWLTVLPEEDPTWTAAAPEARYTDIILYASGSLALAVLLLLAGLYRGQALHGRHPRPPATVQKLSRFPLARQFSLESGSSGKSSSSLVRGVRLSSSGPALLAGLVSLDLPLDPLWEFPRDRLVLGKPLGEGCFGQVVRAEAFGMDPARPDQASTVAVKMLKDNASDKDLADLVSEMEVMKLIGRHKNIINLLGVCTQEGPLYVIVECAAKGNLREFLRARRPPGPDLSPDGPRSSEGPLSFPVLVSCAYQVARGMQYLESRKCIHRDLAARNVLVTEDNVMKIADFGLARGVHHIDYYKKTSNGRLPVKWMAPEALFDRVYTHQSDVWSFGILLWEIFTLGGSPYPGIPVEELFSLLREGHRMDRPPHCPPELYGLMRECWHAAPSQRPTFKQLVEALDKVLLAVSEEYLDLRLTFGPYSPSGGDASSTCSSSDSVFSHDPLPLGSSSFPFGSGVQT
Protocol: as §1, with “FGFR4” for “FGFR3”, “(60” for “(40”, “5” for “25”

[4] = molecular target: KDR (h) (VEGFR2) (Homo sapiens, UniProt P35968); assay: KDR (VEGFR2) (enzymatic assay), TR-FRET; format: biochemical
Sequence of KDR (h) (VEGFR2) (P35968 20-1356): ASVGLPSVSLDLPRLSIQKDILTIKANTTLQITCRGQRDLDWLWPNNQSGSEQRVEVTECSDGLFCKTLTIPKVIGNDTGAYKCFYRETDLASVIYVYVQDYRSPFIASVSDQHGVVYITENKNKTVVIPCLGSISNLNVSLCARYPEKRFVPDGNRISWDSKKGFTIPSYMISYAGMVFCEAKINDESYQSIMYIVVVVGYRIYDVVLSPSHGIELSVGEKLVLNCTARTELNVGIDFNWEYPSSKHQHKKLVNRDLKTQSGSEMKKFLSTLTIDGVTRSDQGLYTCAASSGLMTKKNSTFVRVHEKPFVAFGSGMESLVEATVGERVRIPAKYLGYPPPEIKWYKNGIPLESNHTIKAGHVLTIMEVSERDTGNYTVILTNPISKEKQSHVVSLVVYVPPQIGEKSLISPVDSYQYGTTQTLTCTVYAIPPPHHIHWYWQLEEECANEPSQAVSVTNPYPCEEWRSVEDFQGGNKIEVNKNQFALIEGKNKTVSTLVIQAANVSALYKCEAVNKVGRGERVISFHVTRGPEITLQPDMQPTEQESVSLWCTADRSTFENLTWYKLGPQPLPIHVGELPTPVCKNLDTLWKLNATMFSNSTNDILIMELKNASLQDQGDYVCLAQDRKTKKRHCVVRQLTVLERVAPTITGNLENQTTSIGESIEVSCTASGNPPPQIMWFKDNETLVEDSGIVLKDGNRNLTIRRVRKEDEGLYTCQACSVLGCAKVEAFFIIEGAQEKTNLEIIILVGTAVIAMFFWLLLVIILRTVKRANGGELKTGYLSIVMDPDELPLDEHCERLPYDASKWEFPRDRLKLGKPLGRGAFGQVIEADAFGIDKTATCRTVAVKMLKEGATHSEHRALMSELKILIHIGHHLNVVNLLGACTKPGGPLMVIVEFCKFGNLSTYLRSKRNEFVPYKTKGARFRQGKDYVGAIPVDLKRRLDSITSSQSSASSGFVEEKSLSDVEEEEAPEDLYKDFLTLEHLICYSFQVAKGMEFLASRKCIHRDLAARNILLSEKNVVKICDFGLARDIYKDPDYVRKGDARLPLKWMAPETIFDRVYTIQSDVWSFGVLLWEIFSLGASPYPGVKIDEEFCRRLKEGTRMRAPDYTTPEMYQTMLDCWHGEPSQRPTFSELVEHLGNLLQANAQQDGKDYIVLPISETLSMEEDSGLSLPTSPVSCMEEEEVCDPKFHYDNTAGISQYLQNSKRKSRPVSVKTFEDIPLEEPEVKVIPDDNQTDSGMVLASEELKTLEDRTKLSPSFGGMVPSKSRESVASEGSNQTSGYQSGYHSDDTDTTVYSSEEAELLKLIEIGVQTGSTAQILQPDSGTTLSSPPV
Summary of the method: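 Phosphorylation of biotinylated Flt3 peptide (500 nM) by 150 ng/ml enzyme was measured at 3 μM ATP in Mn2+-containing HEPES buffer, pH 7.5, over 120 min at room temperature. Detection used Eu-anti-P-Tyr and SA-XL-665 TR-FRET.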

[5] = test system: Ba/F3-FGFR1-transfected cells in the presence of 10 ng/ml murine IL3; assay: Ba/F3-FGFR1 (plus IL3) cellular proliferation counterscreen, Alamar Blue; format: cell-based; settings: Mus musculus
Summary of the method: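 Compound dilutions in DMSO are combined with transfected cells in phenol red-free RPMI-1640 containing 10% FBS and L-glutamine. Plates incubate 24 h at 37 °C and 5% CO2. Viability is then scored by 4 h Alamar Blue conversion, read as fluorescence (540 nm excitation, 590 nm emission).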

[6] = molecular target: Ba/F3-KDR-transfected cells (Homo sapiens, UniProt P35968); assay: Ba/F3-KDR (minus IL3) cellular proliferation assay, Alamar Blue; format: cell-based; settings: minus IL3
Sequence of Ba/F3-KDR-transfected cells (P35968 whole entry, change not shown): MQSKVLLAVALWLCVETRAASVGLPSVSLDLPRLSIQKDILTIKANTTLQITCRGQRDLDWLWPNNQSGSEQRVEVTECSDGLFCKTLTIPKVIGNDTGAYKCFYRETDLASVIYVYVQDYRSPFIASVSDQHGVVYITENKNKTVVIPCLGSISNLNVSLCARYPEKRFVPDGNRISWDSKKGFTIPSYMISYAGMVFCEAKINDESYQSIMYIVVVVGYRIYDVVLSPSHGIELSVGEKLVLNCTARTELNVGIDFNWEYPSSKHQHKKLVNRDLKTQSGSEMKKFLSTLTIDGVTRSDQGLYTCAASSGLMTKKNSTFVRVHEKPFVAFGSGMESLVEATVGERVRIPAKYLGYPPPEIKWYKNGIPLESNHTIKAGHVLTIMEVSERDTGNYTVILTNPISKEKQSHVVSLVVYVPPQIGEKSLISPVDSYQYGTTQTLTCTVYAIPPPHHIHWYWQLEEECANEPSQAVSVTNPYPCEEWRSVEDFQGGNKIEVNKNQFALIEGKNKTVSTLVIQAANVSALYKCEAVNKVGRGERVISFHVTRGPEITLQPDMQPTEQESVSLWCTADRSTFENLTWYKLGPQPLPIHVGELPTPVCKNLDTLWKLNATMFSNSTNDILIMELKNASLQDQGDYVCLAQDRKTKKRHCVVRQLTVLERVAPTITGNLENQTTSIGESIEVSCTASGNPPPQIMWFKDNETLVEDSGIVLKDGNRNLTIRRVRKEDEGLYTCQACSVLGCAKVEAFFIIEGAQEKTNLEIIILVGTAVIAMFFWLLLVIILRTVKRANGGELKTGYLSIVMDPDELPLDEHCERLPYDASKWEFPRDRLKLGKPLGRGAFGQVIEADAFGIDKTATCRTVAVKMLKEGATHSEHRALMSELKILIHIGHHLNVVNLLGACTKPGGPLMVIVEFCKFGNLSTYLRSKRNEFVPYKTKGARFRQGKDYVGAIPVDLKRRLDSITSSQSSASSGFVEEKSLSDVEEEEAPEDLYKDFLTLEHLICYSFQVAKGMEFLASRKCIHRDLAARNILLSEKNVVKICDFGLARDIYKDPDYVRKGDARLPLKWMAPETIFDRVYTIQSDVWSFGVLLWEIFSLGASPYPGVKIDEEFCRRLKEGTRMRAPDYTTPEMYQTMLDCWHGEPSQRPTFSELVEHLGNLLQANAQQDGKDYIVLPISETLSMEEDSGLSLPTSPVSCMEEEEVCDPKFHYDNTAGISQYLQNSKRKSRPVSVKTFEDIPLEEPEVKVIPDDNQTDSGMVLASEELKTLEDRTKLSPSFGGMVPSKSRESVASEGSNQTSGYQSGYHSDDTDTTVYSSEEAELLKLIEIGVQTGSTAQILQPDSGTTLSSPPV
Summary of the method: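 Compound in DMSO was combined with Ba/F3-KDR-transfected cells in RPMI-1640, 10% FBS, 2 mM L-glutamine. After 24 h incubation at 37 °C, Alamar Blue was added for a further 4 h, then relative fluorescence units were measured.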

[7] = plus IL3, 384 well, read-out: BAF3-FGFR 1 (PLUS IL3) 384 well pIC50 (converted)
[8] = plus IL3, 96 well, read-out: BAF3-FGFR 1 (PLUS IL3) 96 well pIC50 (converted)

Sequence of FGFR2 (h) (P21802 22-821): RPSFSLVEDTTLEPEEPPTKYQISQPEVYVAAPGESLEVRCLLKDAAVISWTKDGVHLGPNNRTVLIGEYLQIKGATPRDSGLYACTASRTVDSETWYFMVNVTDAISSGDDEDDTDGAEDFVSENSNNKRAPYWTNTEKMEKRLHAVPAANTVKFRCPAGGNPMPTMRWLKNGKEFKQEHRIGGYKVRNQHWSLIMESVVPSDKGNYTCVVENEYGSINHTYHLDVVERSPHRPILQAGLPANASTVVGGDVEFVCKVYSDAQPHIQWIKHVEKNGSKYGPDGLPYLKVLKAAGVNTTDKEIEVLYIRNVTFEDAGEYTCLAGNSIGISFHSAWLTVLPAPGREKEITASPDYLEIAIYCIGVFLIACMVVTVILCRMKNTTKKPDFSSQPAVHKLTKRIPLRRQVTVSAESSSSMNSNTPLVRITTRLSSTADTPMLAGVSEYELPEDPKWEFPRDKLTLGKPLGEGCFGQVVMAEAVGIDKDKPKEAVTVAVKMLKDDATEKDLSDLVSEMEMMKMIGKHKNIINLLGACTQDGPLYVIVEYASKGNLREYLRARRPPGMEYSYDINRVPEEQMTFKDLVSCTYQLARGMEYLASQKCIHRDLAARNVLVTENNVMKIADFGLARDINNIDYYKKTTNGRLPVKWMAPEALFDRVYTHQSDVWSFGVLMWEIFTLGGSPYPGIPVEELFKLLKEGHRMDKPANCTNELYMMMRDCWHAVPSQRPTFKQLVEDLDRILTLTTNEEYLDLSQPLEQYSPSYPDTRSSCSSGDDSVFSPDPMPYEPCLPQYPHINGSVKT

SMILES: COc1cc(OC)cc(N(CCNC(C)C)c2ccc3ncc(-c4cccnc4)nc3c2)c1 [Compound 10]
- IC50 [1]: 5.89 nM
- IC50 [2]: 10.2 nM
- IC50 [3]: 23.4 nM
- IC50 [4]: 295 nM
- IC50 [5, 7]: > 10000 nM
- BAF3-KDR (MIN IL3) 384 well pIC50 [6]: 5.56

SMILES: CNC(=O)c1cc(-c2cnc3ccc(N(CCNC(C)C)c4cc(OC)cc(OC)c4)cc3n2)ccn1 [Compound 14]
- IC50 [1]: 5.62 nM
- IC50 [2]: 9.55 nM
- IC50 [3]: 41.7 nM
- IC50 [4]: 490 nM
- IC50 [5, 7]: ~7080 nM
- BAF3-KDR (MIN IL3) 384 well pIC50 [6]: 5.35

SMILES: COc1cc(OC)cc(N(CC2CC2)c2ccc3ncc(C#Cc4ccncc4)nc3c2)c1 [Compound 23]
- IC50 [1]: 427 nM
- IC50 [2]: 214 nM
- IC50 [3]: > 1000 nM
- IC50 [4]: > 1000 nM
- IC50 [5, 8]: 5890 nM
- IC50 [5, 7]: > 10000 nM
- BAF3-KDR (MIN IL3) 96 well pIC50 [6]: 5.36
- BAF3-KDR (MIN IL3) 384 well pIC50 [6]: <5

SMILES: COc1cc(OC)cc(N(CC2CC2)c2ccc3ncc(-c4cn(CCN5CCOCC5)nn4)nc3c2)c1 [Compound 24]
- IC50 [1]: 25.1 nM
- IC50 [2]: 9.55 nM
- IC50 [3]: 191 nM
- IC50 [4]: 832 nM
- IC50 [5, 8]: > 10000 nM
- IC50 [5, 7]: > 10000 nM
- BAF3-KDR (MIN IL3) 96 well pIC50 [6]: <5
- BAF3-KDR (MIN IL3) 384 well pIC50 [6]: <5

SMILES: CNC(=O)c1cc(-c2cnc3ccc(N(CCN4CCCC4=O)c4cc(OC)cc(OC)c4)cc3n2)ccn1 [Compound 25]
- IC50 [1]: 251 nM
- IC50 [2]: 282 nM
- IC50 [3]: > 1000 nM
- IC50 [4]: > 1000 nM
- IC50 [5, 7]: > 10000 nM
- BAF3-KDR (MIN IL3) 384 well pIC50 [6]: <5

SMILES: COc1cc(OC)cc(N(CC2CC2)c2ccc3ncc(-n4cnc(C)c4)nc3c2)c1 [Compound 30]
- IC50 [1]: 67.6 nM
- IC50 [2]: 26.9 nM
- IC50 [3]: 214 nM
- IC50 [4]: 501 nM
- IC50 [5, 8]: > 10000 nM
- IC50 [5, 7]: > 10000 nM
- BAF3-KDR (MIN IL3) 96 well pIC50 [6]: 5.11
- BAF3-KDR (MIN IL3) 384 well pIC50 [6]: 5.07

SMILES: COc1cc(OC)cc(N(CC2CC2)c2ccc3ncc(-c4cnnn4C)nc3c2)c1 [Compound 72]
- IC50 [1]: 479 nM
- IC50 [2]: 389 nM
- IC50 [3]: > 1000 nM
- IC50 [4]: > 1000 nM
- IC50 [5, 8]: 7940 nM
- IC50 [5, 7]: > 10000 nM

Now from value to compound, other results behind:

- IC50 [1]: 19.5 nM
- IC50 [2]: 10 nM
- IC50 [3]: 38.9 nM
- IC50 [4]: 126 nM
- BAF3-KDR (MIN IL3) 384 well pIC50 [6]: 5.07
SMILES: COCCCN(c1cc(OC)cc(OC)c1)c1ccc2ncc(-c3ccn(C)c3)nc2c1 [Compound 3]
- IC50 [5, 7]: > 10000 nM

- IC50 [1]: 12 nM
- IC50 [2]: 6.92 nM
- IC50 [3]: 24.5 nM
- IC50 [4]: 107 nM
- BAF3-KDR (MIN IL3) 384 well pIC50 [6]: 5.18
SMILES: COCCN(c1cc(OC)cc(OC)c1)c1ccc2ncc(-c3ccn(C)c3)nc2c1 [Compound 6]
- IC50 [5, 7]: > 10000 nM

- IC50 [1]: 2.63 nM
- IC50 [2]: 2.34 nM
- IC50 [3]: 3.47 nM
- IC50 [4]: 20 nM
- BAF3-KDR (MIN IL3) 384 well pIC50 [6]: 6.19
SMILES: COc1cc(OC)cc(N(CCNC(C)C)c2ccc3ncc(-c4ccn(C)c4)nc3c2)c1 [Compound 8]
- IC50 [5, 7]: > 10000 nM

- IC50 [1]: 17 nM
- IC50 [2]: 4.68 nM
- IC50 [3]: 52.5 nM
- IC50 [4]: 295 nM
- BAF3-KDR (MIN IL3) 384 well pIC50 [6]: 5.12
SMILES: COc1cc(OC)cc(N(CCO)c2ccc3ncc(-c4cccnc4)nc3c2)c1 [Compound 9]
- IC50 [5, 7]: > 10000 nM

- IC50 [1]: 14.1 nM
- IC50 [2]: 4.47 nM
- IC50 [3]: 41.7 nM
- IC50 [4]: 269 nM
- BAF3-KDR (MIN IL3) 384 well pIC50 [6]: 5.1
SMILES: COc1cc(OC)cc(N(CCO)c2ccc3ncc(-c4ccncc4)nc3c2)c1 [Compound 11]
- IC50 [5, 7]: > 10000 nM

- IC50 [1]: 2.45 nM
- IC50 [2]: 4.47 nM
- IC50 [3]: 20.4 nM
- IC50 [4]: 95.5 nM
- BAF3-KDR (MIN IL3) 384 well pIC50 [6]: 5.53
SMILES: COc1cc(OC)cc(N(CCNC(C)C)c2ccc3ncc(-c4ccncc4)nc3c2)c1 [Compound 12]
- IC50 [5, 7]: > 10000 nM

- IC50 [1]: 2.11 nM
- IC50 [2]: 3.2 nM
- IC50 [3]: 8.04 nM
- IC50 [4]: 94.4 nM
- BAF3-KDR (MIN IL3) 384 well pIC50 [6]: 5.82
SMILES: COc1cc(OC)cc(N(CCNC(C)C)c2ccc3ncc(-c4ccc(N)nc4)nc3c2)c1 [Compound 17]
- IC50 [5, 7]: ~7760 nM
